In brackets after ≈: the same amount, converted by molar mass. Like-named read-outs stand apart in the source and are kept apart here.

The conditions of data set [1]: women, after 7 days of IVR use.
Description: The trial consisted of an open-label, crossover design where six participants sequentially used a TDF pod-IVR for seven days followed by a TDF-FTC pod-IVR, with a washout period of at least 14 days between each treatment period. Women who were clinically deemed eligible returned to the clinic for IVR insertion visit (Visit 1, TDF IVR; Visit 5, TDF-FTC IVR) after cessation of menses. Women returned for Visit 2 (TDF IVR) or Visit 6 (TDF-FTC IVR) on Day 2 (±1 d) after IVR insertion and for Visit 3 (TDF IVR) or Visit 7 (TDF-FTC IVR) on Day 7 (±1 d) when the IVRs were removed. At Visit 3/7, vaginal biopsies were obtained, and the IVRs were collected. Tissue samples were ultimately reported as ng/mg or fmol/mg, respectively, following normalization to net biopsy or Dacron swab weight.
The conditions of data set [2]: cited from earlier work.
For data set [3] the following is noted: sheep, in vivo. The procedure:
FIG. 15 illustrates a graph of cervicovaginal lavage concentration (median+SD) of estonogestrel (1510) and ethiny estradiol (1505) delivered simultaneously via combination pod IVRs over 28 days in sheep (n=3). Inverted triangles: estonogestrel; Diamonds: ethiny estradiol.
FIG. 15 illustrates a graph of ETG-EE release: ETG (1510); EE (1505). The pod-in-rings for this example delivered etonogestrel (ETG) and […]. The silicone pod IVRs contained two pods of EE at 16 mg API per pod (32 mg drug per ring) and ETG at 10 mg API per pod (20 mg drug per ring). Median ETG CVL levels (13±6.9 nM) were 8 times higher than the corresponding […] levels (1.6±1.2 nM), in agreement with the relative daily release rates of ETG and EE from the NuvaRing® (120 μg day^−1 and 15 μg day^−1, respectively). Plasma levels were not measured, the preliminary results should imply a match for in vivo and in vitro release compared to Nuvaring®.

The conditions of data set [4]: systemic delivery; cited from earlier work.
The subject of another data set is HSV. Nature of the data set: Inhibition of HSV infection by acyclovir, dose-response curve. Type of data set: cell-based. The following applies: drug added at the time of HSV challenge and in the overlay medium; read-out: concentration of acyclovir that inhibits infection by 50% (IC50). As to the method: The concentration of acyclovir that inhibits infection by 50% (IC50) when drug was added at the time of HSV challenge and in the overlay medium was ˜700 ng/mL.
In FIG. 16, panel A (1605), the percentage inhibition of HSV infection was determined in the presence of increasing concentrations of acyclovir (ACV). In panel B (1610) the percentage inhibition of HSV infection was determined in the presence of the indicated CVL sample or control fluid. Results are means from duplicate wells and each participant is represented by a different symbol (1615); the horizontal lines (1620) indicate the medians for the groups. In panel C (1625), the relationship between drug levels and percentage inhibition was determined by the Spearman correlation coefficient. Filled circles (1630) represent CVL samples obtained 24 h after oral VCV dosing, and open circles (1635) are CVL samples obtained 7 days after ring insertion.

For data set [5] the following is noted: beyond 190° C.; cited from earlier work.

Take `CC(Cn1cnc2c(N)ncnc21)OCP(=O)(O)OP(=O)(O)OP(=O)(O)O` (stereo in doubt) [TFV-DP, Tenofovir diphosphate]: the “vaginal biopsy homogenate tissue levels” value in data set [1] is recorded as “high enough for PrEP action”.

`C#C[C@]1(O)CC[C@H]2[C@@H]3CCc4cc(O)ccc4[C@H]3CC[C@@]21C` [EE, Ethinyl Estradiol]: the solubility in water result in data set [2] is reported as “highly hydrophobic”.

For `C#C[C@]1(O)CC[C@H]2[C@@H]3CCC4=CC(=O)CC[C@@H]4[C@H]3C(=C)C[C@@]21CC` [ETG, Etonogestrel], the “ETG CVL levels relative to estradiol (E2) levels” value in data set [3] was determined as 8 times. Further, the solubility in water result in data set [2] is reported as “highly hydrophobic”.

Consider `Nc1nc(=O)n([C@@H]2CS[C@H](CO)O2)cc1F` [FTC, Emtricitabine], for which, in data set [1], the “vaginal biopsy homogenate tissue levels” value is given as “high enough for PrEP action”.

With `Cc1nc(N(C)C(=O)Cc2ccc(-c3ccccn3)cc2)sc1S(N)(=O)=O` [Pritelivir], the solubility in water result in data set [2] is “insoluble in water”; in data set [2] (listed as pritelivir), “low solubility”. Besides, the “toxicity when delivered systemically” value in data set [4] is recorded as “significant toxicity”.

`Nc1nc2c(ncn2COCCO)c(=O)[nH]1` [acyclovir]: the IC50 in the data set on HSV was approximately 0.7 µg/mL (≈ 3.11 µM). For the same compound, in data set [2], the solubility in water entry is on record as “extremely water soluble”. For the same compound, in data set [5], the thermal stability entry was “higher thermal stability even beyond 190 °C”.

`CCNC(=O)[C@@H]1CCCN1C(=O)[C@H](CCCNC(=N)N)NC(=O)[C@H](CC(C)C)NC(=O)[C@@H](CC(C)C)NC(=O)[C@H](Cc1ccc(O)cc1)NC(=O)[C@H](CO)NC(=O)[C@H](Cc1c[nH]c2ccccc12)NC(=O)[C@H](Cc1c[nH]cn1)NC(=O)[C@@H]1CCC(=O)N1` [leuprolide]: in data set [5], the thermal stability entry is “not heat-stable beyond 190 °C”.

Regarding `C[C@@H](O)[C@@H]1NC(=O)[C@H](CCCCN)NC(=O)[C@@H](Cc2c[nH]c3ccccc23)NC(=O)[C@H](Cc2ccccc2)NC(=O)[C@@H](NC(=O)[C@H](N)Cc2ccccc2)CSSC[C@@H](C(=O)N[C@H](CO)[C@@H](C)O)NC1=O` [octreotide], the solubility in water entry in data set [2] was “very soluble”.

These data come from patent publication US20200038641A1, “DRUG DELIVERY DEVICE WITH REMOVABLE PODS AND RELATED PODS, METHODS AND SYSTEMS” (priority 2017, published 2020).
